This note sets out measurements from ChEMBL document CHEMBL4811240, “Discovery of N-substituted sulfamoylbenzamide derivatives as novel inhibitors of STAT3 signaling pathway based on Niclosamide” (Eur J Med Chem, 2021).

For orientation: inhibition means how much of the control response was suppressed.

One test relates to SW480. The test is described as follows: Antiproliferative activity against human SW480 cells assessed as inhibition of cell viability at 10 uM after 48 hrs by MTT assay relative to control. The format is functional. (Formazan colour is commonly taken as a measure of viable cells.)
Test [1] has as its target Serine/threonine-protein kinase PAK 1 (Homo sapiens) (UniProt Q13153). The test is described as follows: Inhibition of full length N-terminal GST-tagged PAK1 (1 to 545 residues) (unknown origin) expressed in Sf21 at 10 uM preincubated for 10 mins followed by peptide substrate addition relative to control.
In test [2] the target is Signal transducer and activator of transcription 3 (Homo sapiens) (UniProt P40763). As to the kind of experiment: Inhibition of STAT3 promoter activity in human MDA-MB-231 cells at 0.5 uM incubated for 24 hrs by dual luciferase reporter assay. Type of test: cell-based.
Sequence of Signal transducer and activator of transcription 3 (Homo sapiens) (P40763 whole entry): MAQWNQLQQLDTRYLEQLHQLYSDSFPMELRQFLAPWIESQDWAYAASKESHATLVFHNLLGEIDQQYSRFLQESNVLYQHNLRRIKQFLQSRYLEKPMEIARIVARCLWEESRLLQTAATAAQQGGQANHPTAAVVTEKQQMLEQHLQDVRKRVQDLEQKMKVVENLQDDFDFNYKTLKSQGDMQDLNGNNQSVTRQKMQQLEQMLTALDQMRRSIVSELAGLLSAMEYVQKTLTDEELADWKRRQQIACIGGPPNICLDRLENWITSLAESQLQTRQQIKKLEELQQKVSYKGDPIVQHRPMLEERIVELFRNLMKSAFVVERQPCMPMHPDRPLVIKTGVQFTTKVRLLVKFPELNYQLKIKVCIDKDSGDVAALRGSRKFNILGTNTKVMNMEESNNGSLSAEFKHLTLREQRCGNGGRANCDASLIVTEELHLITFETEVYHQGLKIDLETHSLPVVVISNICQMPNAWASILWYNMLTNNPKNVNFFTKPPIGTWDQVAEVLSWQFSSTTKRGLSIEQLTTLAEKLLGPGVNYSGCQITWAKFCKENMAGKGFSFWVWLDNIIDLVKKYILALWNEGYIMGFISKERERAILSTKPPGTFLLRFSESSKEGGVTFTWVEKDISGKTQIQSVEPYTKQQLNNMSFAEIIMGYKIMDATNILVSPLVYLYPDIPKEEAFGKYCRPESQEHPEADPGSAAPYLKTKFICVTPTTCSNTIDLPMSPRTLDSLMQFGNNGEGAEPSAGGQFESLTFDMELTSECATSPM

Sequence of Serine/threonine-protein kinase PAK 1 (Homo sapiens) (Q13153 whole entry, looked up, the tested form may be a part): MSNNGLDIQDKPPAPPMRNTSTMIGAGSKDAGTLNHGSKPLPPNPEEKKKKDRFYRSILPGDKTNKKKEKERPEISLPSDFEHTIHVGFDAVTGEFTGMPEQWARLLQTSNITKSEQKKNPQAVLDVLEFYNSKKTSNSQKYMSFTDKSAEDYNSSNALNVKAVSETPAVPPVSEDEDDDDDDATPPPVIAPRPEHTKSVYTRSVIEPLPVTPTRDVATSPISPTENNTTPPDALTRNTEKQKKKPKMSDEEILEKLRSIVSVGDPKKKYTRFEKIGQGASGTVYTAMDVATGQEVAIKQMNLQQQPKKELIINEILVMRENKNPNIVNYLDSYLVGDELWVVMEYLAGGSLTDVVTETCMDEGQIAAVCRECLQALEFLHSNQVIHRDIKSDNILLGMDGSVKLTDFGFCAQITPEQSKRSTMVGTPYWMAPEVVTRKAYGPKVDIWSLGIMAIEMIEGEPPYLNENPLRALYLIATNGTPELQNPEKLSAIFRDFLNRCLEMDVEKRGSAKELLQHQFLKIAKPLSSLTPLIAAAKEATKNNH

For `CC(C)(C)OC(=O)c1ccc(NC(=O)c2ccc(Cl)c(S(N)(=O)=O)c2)cc1`, the inhibition at 10 µM in the test with SW480 stood at 80.9%. The inhibition in test [1] turned out to be 9.32%; in test [2] it was 80.6%.
